Experimental data from PubChem BioAssay (NCI).
Where “and” joins values, the source holds several entries; their conditions need not be identical. Identical values can stand only once.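 Each compound was tested at five concentrations against cells in 96-well plates for 48 hours. At the GI50, growth is halved. Definition used: TGI = concentration required for complete inhibition of growth.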

Experiments:
Assay in all cases: DTP human tumour cell line panel, 48 h
NCI-H460 lung = system: NCI-H460 lung
CAKI-1 renal = system: CAKI-1 renal
HT29 colon = system: HT29 colon
CCRF-CEM leukemia = system: CCRF-CEM leukemia
SN12C renal = system: SN12C renal
HCT-15 colon = system: HCT-15 colon
NCI-H522 lung = system: NCI-H522 lung
NCI/ADR-RES ovarian = system: NCI/ADR-RES ovarian
COLO 205 colon = system: COLO 205 colon
OVCAR-5 ovarian = system: OVCAR-5 ovarian

| SMILES | GI50 (NCI-H460 lung) [µM] | TGI (NCI-H460 lung) [µM] | GI50 (CAKI-1 renal) [µM] | TGI (CAKI-1 renal) [µM] | GI50 (HT29 colon) [µM] | TGI (HT29 colon) [µM] | GI50 (CCRF-CEM leukemia) [µM] | TGI (CCRF-CEM leukemia) [µM] | GI50 (SN12C renal) [µM] | TGI (SN12C renal) [µM] | GI50 (HCT-15 colon) [µM] | TGI (HCT-15 colon) [µM] | GI50 (NCI-H522 lung) [µM] | TGI (NCI-H522 lung) [µM] | GI50 (NCI/ADR-RES ovarian) [µM] | TGI (NCI/ADR-RES ovarian) | GI50 (COLO 205 colon) [µM] | TGI (COLO 205 colon) [µM] | GI50 (OVCAR-5 ovarian) [µM] | TGI (OVCAR-5 ovarian) [µM] |
| --- | --- | --- | --- | --- | --- | --- | --- | --- | --- | --- | --- | --- | --- | --- | --- | --- | --- | --- | --- | --- |
| N#Cc1cnc2cc(OC[C@@H](O)CO)c(NC(=O)C3CCCC3)cc2c1Nc1ccc(OCc2cccc(F)c2)c(Cl)c1 | 1.05 | 4.73 | 5.61 | > 50 | 1.39 | 3.84 | 0.48 | 2.19 | 1.88 | 28.6 | 2.45 | > 50 | 0.568 | 1.34 | 21.7 | > 50 µM | 4.28 | 26 | 7.69 | 17.2 |
| CCCOc1cc2ccccc2cc1C(=O)Nc1nc(NC)c2c(ccc3nccc32)[nH]1 | 0.348 | 1.13 | 1.76 | 3.82 | 0.208 | 0.446 | 0.311 | 1.04 | 1.72 | 3.48 | 0.24 | 1.03 | 0.0449 | 0.219 | 0.55 | 2.48 µM | 0.479 | 1.81 | 1.4 | 3 |
| NCCCOc1cc2ccccc2cc1C(=O)Nc1ccc(Cl)cc1OC(=O)c1cc2ccccc2cc1OCCCN | 0.195 | 0.345 | 1.4 | 4.12 | 0.266 |  | 0.413 | 1.39 | 0.742 | 2.23 | 0.468 | 1.15 | 0.235 | 0.639 | 1.17 | 2.79 µM | 1.27 | 2.63 | 1 | 2.47 |
| O=[N+]([O-])c1cccc(-c2nc(-c3ccc(Cl)cc3Cl)cn2-c2ccccc2)c1 | 0.598 | 1.12 | 0.477 | 1.21 | 1.25 | 5.42 |  | > 18.7 | 1.19 | > 7.91 | 1.13 | > 23.2 | 3.25 | > 20.2 | 1.56 | 15.6 µM | 0.485 | 0.987 | 3.54 | 24.6 |
| COc1cc(Cl)cc(-c2nn(-c3cccc(NC(=O)Nc4cccc(C(F)(F)F)c4)c3)cc2-c2ccncc2)c1 | 0.84 | 4.66 | 1.29 | 8.9 | 1.51 | 6.24 | 1.2 | 5.36 | 2.06 | 18.5 | 1.34 | 10.6 | 0.455 | 2.51 | 1.65 | 7.81 µM | 1.53 | 3.17 | 3.06 | 30.1 |
| CNCC/C=C1\c2cc3c(cc2-c2c1c1cc(OC)c(OC)cc1c(=O)n2C)OCO3 | 0.196 | 5.97 | 0.278 | 5.92 | 0.21 | > 100 | < 0.01 |  | 0.207 | 6.06 | 0.585 | 13 | 0.122 | 16.2 | 3.74 | > 45.2 µM | 1.73 | 41.2 | 4.51 | 27.4 |
| COc1cc(-n2cc(-c3ccccc3)[nH]c2=O)cc(OC)c1OC | 52.2 | > 100 | 37.8 | > 100 | > 100 | > 100 | > 100 | > 100 | 47.6 | > 100 | 85.2 | > 100 | 27.2 | > 100 | 33 | > 100 µM | > 100 | > 100 | > 100 | > 100 |
| C=C1C(=O)OC2C1C(OC(=O)/C(C)=C/C)CC(O)(CCl)C1C(O)C=C(C)C21O (stereo unspecified) |  | 36.2 |  | 11.4 |  | 31.5 |  | > 36.8 |  | 29.4 |  | 14.4 |  | 3.29 |  | 55.6 µM |  | 18.5 |  | 32.4 |
| O=C1/C=C/[C@@H](O)[C@@H]2C[C@@H](O)C[C@H]2/C=C/CCC[C@H](CCc2ccc3ncccc3c2)O1 | 0.36 | > 46.8 | 0.282 |  | 0.0905 | 0.555 | 0.306 | 8.4 | 0.334 | > 100 | 0.337 | 14.5 | 0.212 | 0.523 | 0.396 | 9.05 µM | 0.19 | 0.343 | 0.42 | > 100 |
| O=C1Nc2cc(-c3cccc(O)c3)ccc2/C1=C/c1ccc[nH]1 | 0.46 | 3.96 | 1.79 | 5.91 | 4.71 | 30.6 | 2.27 | > 100 | 1.6 | 7.11 | 0.271 | 12.7 | 1.6 | 14.1 | 2.51 | 12.5 µM | 4.37 | 28.6 | 2.89 | 15.4 |
| Nc1ccccc1C#C/C=C\C#CC#C/C=C\C#Cc1ccccc1N | 8.32 | 25.6 | 2.74 | 11.8 | 8.36 | 32.7 | 0.0892 | 16 | 3.05 | 16.4 | 3.74 | 24.2 | 3.93 | 16 | 2.85 | 16.3 µM | 13.5 | 35.9 | 14.9 | 42.1 |
| C/C=C/C/C=C/[C@H](C)C[C@H](O)[C@@H]1C[C@@H]2O[C@H]2/C=C/[C@@H]2OC(C)(C)O[C@H]2/C=C/C[C@H](C)CC(=O)O1 | 5.65 | > 100 | 2.9 | 31.1 | 12 | > 100 | 2.78 | 56.4 | 5.23 | > 100 | 4.84 | > 100 | 3.6 | 31.9 | 3.28 | > 100 µM | 8.02 | > 100 | 73.8 | > 100 |
| O=C(NCCc1ccccc1)Nc1ccc2cc3ccc(NC(=O)NCCc4ccccc4)cc3nc2c1 | 1.27 | 3.57 | 4.65 | > 100 | 1.39 | 3.56 | 0.301 | 0.945 | 0.42 | 1.6 | > 100 | > 100 | 0.326 | 1.5 | > 100 | > 100 µM | 0.318 | 1.19 | 2.03 | 5.7 |
| CN(C)C(=O)OCc1nc2c(N3CCOCC3)nc(-c3ccccc3)nc2n1C | 1.66 | 3.52 | 0.45 | 1.7 | 0.476 | 1.78 | 0.273 | 1.55 | 0.912 | 2.31 | 0.22 | 0.561 | 0.454 | 2.02 | 1.59 | 6.53 µM | 1.32 | 2.97 | 1.6 | 3.26 |
| Cc1ccc(Nc2cc(Cl)c([N+](=O)[O-])cc2[N+](=O)[O-])cc1 | 2.35 | 5.45 | 4.19 | 17.4 | 3.04 | 8.07 | 1.96 | 19.8 | 4.1 | 14.6 | 4.12 | 16.5 | 0.805 | 2.15 | 3.83 | 24 µM | 2.11 | 3.92 | 6.62 | 20.9 |
| CNC(=O)c1cc(Oc2cccc3nc(NC(=O)Nc4cc(C(F)(F)F)cc(C(F)(F)F)c4)ccc23)ccn1 | 4.16 | 36.6 | 10.1 | 57.3 | 3.51 | > 100 | 29.4 | > 100 | 5.27 | > 100 | 18.1 | > 100 | 6.65 | 35.4 | 5.62 | 52 µM | 10.8 | 23.8 | 13.3 | > 100 |
| CCCCCCCCCC[C@@H](O)[C@@H]1CC[C@@H]([C@@H]2CC[C@@H]([C@@H](O)CCCCCCCCCC[C@H](O)CC3=CC(C)OC3=O)O2)O1 (stereo partly specified) | 3.4 | > 100 | 3.62 | > 65.3 | 26.4 |  | 2.78 |  | 16 | > 100 | 4.23 | > 100 |  | 13.8 |  | 5.34 µM and 35.8 µM |  | > 27.5 | > 75.4 | > 100 |
| c1ccc(CN2CCc3[nH]c4ccccc4c3C2)cc1 |  | 31 |  | > 100 |  | 36.4 |  | > 82.6 |  | > 78.7 |  | 62.6 |  | 42.4 |  | > 63.3 µM |  | 31.9 |  | > 96.3 |
| COc1cccc(/C=C/c2nc3c(cnn3-c3ccccc3)c(=O)[nH]2)c1 | > 81.8 | > 100 | > 45.6 | > 100 | > 59 | > 100 | > 100 | > 100 | > 100 | > 100 | > 100 | > 100 | > 100 | > 100 | > 33.7 | > 100 µM | > 100 | > 100 | > 100 | > 100 |
